{"source": "PubChem BioAssay (NCI)", "assay_in_all_cases": "NCI tumour cell line growth inhibition, 48 h", "key": {"[1]": {"test_system": "KM20L2 colon"}, "[2]": {"test_system": "COLO 205 colon"}, "[3]": {"test_system": "SN12C renal"}, "[4]": {"test_system": "NCI-H522 lung"}, "[5]": {"test_system": "SK-MEL-5 melanoma"}, "[6]": {"test_system": "HOP-62 NSCLC"}, "[7]": {"test_system": "MOLT-4 leukemia"}, "[8]": {"test_system": "SK-MEL-28 melanoma"}, "[9]": {"test_system": "KM12 colon"}, "[10]": {"test_system": "A498 renal"}, "[11]": {"test_system": "SK-OV-3 ovarian"}, "[12]": {"test_system": "DMS 273 small cell lung"}, "[13]": {"test_system": "MCF7 breast"}, "[14]": {"test_system": "HOP-18 NSCLC"}, "[15]": {"test_system": "OVCAR-3 ovarian"}, "[16]": {"test_system": "P388 leukemia"}, "[17]": {"test_system": "HOP-92 NSCLC"}, "[18]": {"test_system": "UACC-257 melanoma"}, "[19]": {"test_system": "MALME-3M melanoma"}, "[20]": {"test_system": "HT29 colon"}, "[21]": {"test_system": "CAKI-1 renal"}, "[22]": {"test_system": "XF 498 CNS"}, "[23]": {"test_system": "SK-MEL-2 melanoma"}, "[24]": {"test_system": "IGROV1 ovarian"}, "[25]": {"test_system": "DLD-1 colon"}, "[26]": {"test_system": "SNB-19 CNS"}, "[27]": {"test_system": "NCI-H460 lung"}, "[28]": {"test_system": "HCC-2998 colon"}, "[29]": {"test_system": "DMS 114 small cell lung"}, "[30]": {"test_system": "U251 CNS"}, "[31]": {"test_system": "RXF 393 renal"}, "[32]": {"test_system": "EKVX NSCLC"}, "[33]": {"test_system": "UO-31 renal"}, "[34]": {"test_system": "HCT-15 colon"}, "[35]": {"test_system": "K-562 leukemia"}, "[36]": {"test_system": "CCRF-CEM leukemia"}, "[37]": {"test_system": "SF-268 CNS"}, "[38]": {"test_system": "SW-620 colon"}, "[39]": {"test_system": "OVCAR-5 ovarian"}, "[40]": {"test_system": "HL-60(TB) leukemia"}, "[41]": {"test_system": "SNB-75 CNS"}, "[42]": {"test_system": "HCT-116 colon"}, "[43]": {"test_system": "UACC-62 melanoma"}, "[44]": {"test_system": "A549 NSCLC"}, "[45]": {"test_system": "SN12K1 renal"}, "[46]": {"test_system": "SF-295 CNS"}, "[47]": {"test_system": "M19-MEL melanoma"}, "[48]": {"test_system": "LOX IMVI melanoma"}, "[49]": {"test_system": "NCI-H23 lung"}, "[50]": {"test_system": "RPMI-8226 leukemia"}, "[51]": {"test_system": "OVCAR-4 ovarian"}, "[52]": {"test_system": "SF-539 CNS"}, "[53]": {"test_system": "SNB-78 CNS"}}, "note": "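96-well plates; 48 h exposure; 5 concentrations. Endpoints by linear interpolation between flanking doses. Not reached: highest tested concentration assigned. TGI: concentration producing complete growth inhibition.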", "data": [{"smiles": "Cc1c2cnccc2c(C)c2c1c1ccccc1n2CCCCCCNCc1ccccc1", "values": [{"measurement": "TGI", "setting": "[1]", "value": 3.33, "unit": "µM"}, {"measurement": "TGI", "setting": "[2]", "value": 3.07, "unit": "µM"}, {"measurement": "TGI", "setting": "[3]", "value": 3.27, "unit": "µM"}, {"measurement": "TGI", "setting": "[4]", "value": 3.63, "unit": "µM"}, {"measurement": "TGI", "setting": "[5]", "value": 4.29, "unit": "µM"}, {"measurement": "TGI", "setting": "[6]", "value": 7.14, "unit": "µM"}, {"measurement": "TGI", "setting": "[7]", "value": 0.7, "unit": "µM"}, {"measurement": "TGI", "setting": "[8]", "value": 4.41, "unit": "µM"}, {"measurement": "TGI", "setting": "[9]", "value": 3.08, "unit": "µM"}, {"measurement": "TGI", "setting": "[10]", "value": 3.85, "unit": "µM"}, {"measurement": "TGI", "setting": "[11]", "value": 7.24, "unit": "µM"}, {"measurement": "TGI", "setting": "[12]", "value": 2.47, "unit": "µM"}, {"measurement": "TGI", "setting": "[13]", "value": 3.22, "unit": "µM"}, {"measurement": "TGI", "setting": "[14]", "value": 0.923, "unit": "µM"}, {"measurement": "TGI", "setting": "[15]", "value": 4.01, "unit": "µM"}, {"measurement": "TGI", "setting": "[16]", "value": 0.732, "unit": "µM"}, {"measurement": "TGI", "setting": "[17]", "value": 3.64, "unit": "µM"}, {"measurement": "TGI", "setting": "[18]", "value": 3.61, "unit": "µM"}, {"measurement": "TGI", "setting": "[19]", "value": 4.61, "unit": "µM"}, {"measurement": "TGI", "setting": "[20]", "value": 3.13, "unit": "µM"}, {"measurement": "TGI", "setting": "[21]", "value": 3.48, "unit": "µM"}, {"measurement": "TGI", "setting": "[22]", "value": 4.37, "unit": "µM"}, {"measurement": "TGI", "setting": "[23]", "value": 4.24, "unit": "µM"}, {"measurement": "TGI", "setting": "[24]", "value": 3.85, "unit": "µM"}, {"measurement": "TGI", "setting": "[25]", "value": 2.92, "unit": "µM"}, {"measurement": "TGI", "setting": "[26]", "value": 3.75, "unit": "µM"}, {"measurement": "TGI", "setting": "[27]", "value": 1.86, "unit": "µM"}, {"measurement": "TGI", "setting": "[28]", "value": 4.86, "unit": "µM"}, {"measurement": "TGI", "setting": "[29]", "value": 3.94, "unit": "µM"}, {"measurement": "TGI", "setting": "[30]", "value": 3.79, "unit": "µM"}, {"measurement": "TGI", "setting": "[31]", "value": 4.08, "unit": "µM"}, {"measurement": "TGI", "setting": "[32]", "value": 3.94, "unit": "µM"}, {"measurement": "TGI", "setting": "[33]", "value": 3.79, "unit": "µM"}, {"measurement": "TGI", "setting": "[34]", "value": 3.25, "unit": "µM"}, {"measurement": "TGI", "setting": "[35]", "value": 9.36, "unit": "µM"}, {"measurement": "TGI", "setting": "[36]", "value": 5.13, "unit": "µM"}, {"measurement": "TGI", "setting": "[37]", "value": 2.76, "unit": "µM"}, {"measurement": "TGI", "setting": "[38]", "value": 1.67, "unit": "µM"}, {"measurement": "TGI", "setting": "[39]", "value": 3.31, "unit": "µM"}, {"measurement": "TGI", "setting": "[40]", "value": 9.35, "unit": "µM"}, {"measurement": "TGI", "setting": "[41]", "value": 3.9, "unit": "µM"}, {"measurement": "TGI", "setting": "[42]", "value": 1.92, "unit": "µM"}, {"measurement": "TGI", "setting": "[43]", "value": 4.16, "unit": "µM"}, {"measurement": "TGI", "setting": "[44]", "value": 3.74, "unit": "µM"}, {"measurement": "TGI", "setting": "[45]", "value": 1.9, "unit": "µM"}, {"measurement": "TGI", "setting": "[46]", "value": 3.47, "unit": "µM"}, {"measurement": "TGI", "setting": "[47]", "value": 3.95, "unit": "µM"}, {"measurement": "TGI", "setting": "[48]", "value": 3.81, "unit": "µM"}, {"measurement": "TGI", "setting": "[49]", "value": 3.64, "unit": "µM"}, {"measurement": "TGI", "setting": "[50]", "value": 3.44, "unit": "µM"}, {"measurement": "TGI", "setting": "[51]", "value": 1.25, "unit": "µM"}, {"measurement": "TGI", "setting": "[52]", "value": 3.61, "unit": "µM"}, {"measurement": "TGI", "setting": "[53]", "value": 5.08, "unit": "µM"}]}, {"smiles": "Cc1nc(=O)n2c(c1C(=O)Nc1ccc(Cl)cc1)NCC2", "values": [{"measurement": "TGI", "setting": "[10]", "value": "> 100", "unit": "µM"}, {"measurement": "TGI", "setting": "[16]", "value": "> 31.6", "unit": "µM"}, {"measurement": "TGI", "setting": "[17]", "value": "> 100", "unit": "µM"}]}]}
